Test results from publication PMC3056768, “Conjugation to the Cell-Penetrating Peptide TAT Potentiates the Photodynamic Effect of Carboxytetramethylrhodamine” (PLoS ONE, 2011).
Entries after “also recorded” stand apart in the source; their conditions may differ.

Columns and labels:
[1] = system: HeLa cells; assay: Photo-induced endosomal release (fluorescence imaging); type: cell-based, human
Description: (§1) HeLa (human cervical adenocarcinoma), COS-7 (SV40 transformed African green monkey kidney fibroblast-like cell line) were obtained from ATCC. COLO 316 (human ovarian carcinoma) were obtained from Robert Burghardt (Department of Veterinary Integrative Biosciences, Texas A&M University). Cells were cultured in DMEM supplemented with 10% fetal bovine serum (FBS) and maintained at 37°C in a humidified environment with 5% CO2. Cells were plated in 8-well dishes so that the cells were 70% confluent after 24 h, washed 3 times with L-15 media, incubated with 3 to 10 µM peptides at 37°C for 1 h, washed 3 times with L-15, and imaged. Alternatively, cells were incubated in L-15 at 4°C to inhibit the endocytic uptake of peptides. In this case, cells were imaged with the peptide still present in solution and the low temperature was maintained for the entire duration of imaging. For photosensitization, cells were exposed to light (λex = 560±20 nm) for the indicated time points. Plasma membrane disruption was detected by addition of the cell-impermeable DNA stain SYTOX Blue (5 µM) during or after photosensitization.
Ten to twenty images were acquired for each experiment.
The effect of light irradiation on cells that have endocytosed TMR-TAT was first investigated. HeLa cells were incubated in the presence of TMR-TAT (3 µM) for 1 hour at 37°C. After washing the cells, the sample was placed on a microscope and the cellular distribution of the peptide was assessed by fluorescence imaging. […] Within seconds, the content of many endosomes was released into the cell and the peptides were distributed throughout the cell. The peptide also accumulated at the nucleoli, a known effect of TAT [7]. […] The viability of non-irradiated cells was, in contrast, not affected by TMR-TAT (Fig. 2B); we found the cytotoxicity of the peptide to be negligible in the absence of light at concentrations up to 25 µM (supporting information Fig. S1).

[2] = system: COS-7 cells; assay: Photosensitization of endocytosed peptide; type: cell-based, African green monkey; details: COS-7, 3 µM for 1 h, washed, 560 nm
Description: as §1, with “In this case, cells were imaged with the peptide still present in solution and the low temperature was maintained for the entire duration of imaging. For photosensitization, cells were exposed to light (λex = 560±20 nm) for the indicated time points.” left out
TMR-TAT induces cell-death upon light irradiation in HeLa or COS-7 cells. […] Cells were observed using a 10× objective using bright field and fluorescence imaging (CFP filter to detect SYTOX® Blue). […] Cells were observed using a 100× objective using bright field and fluorescence imaging (RFP filter to detect TMR-TAT, pseudocolored red, and CFP filter to detect SYTOX® Blue, pseudo colored blue). […]

[3] = system: HeLa cells; assay: Photo-induced activity as a function of time in the endocytic pathway (endocytic degradation); type: cell-based, human; details: 3 µM 1 h, washed, read-out of endocytic degradation
Description: One would expect that TMR-TAT would accumulate within late endosomes and lysosomes over time and that the TAT moiety might be degraded by proteases present in these organelles. If TAT is required for the lytic activity of TMR-TAT, degradation of the peptide should therefore abolish the activity of the compound. On the other hand, riTAT should be resistant to proteolysis and its lytic activity should not be dependent on the incubation time. HeLa cells were treated with TMR-TAT or TMR-riTAT for 1 hour to allow for endocytosis. The cells were then washed and incubated for an additional 1, 4, or 8 hours in L-15 media to allow for the accumulation of the endocytosed peptides into late endosomes and lysosomes. The cells were then observed under the microscope and treated with light as described in the previous paragraph.
Figure 3 Degradation of TMR-TAT in endocytic organelles abolishes photo-induced endosomal release and photocytotoxicity. HeLa cells were incubated with TMR-TAT or TMR-riTAT (3 µM) for 1 h, washed, and incubated at 37°C for an additional 1, 4 or 8 hours. […] The histogram represents the average percentage of cells stained by SYTOX® Blue after peptide and light treatment (the number of cells examined is at least 3000) and the error bars represent the standard deviation (experiments were reproduced at least 3 times).

Q: How did the “endosomal release on exposure to light of wavelengths not absorbed by TMR” value ([1]; e.g. 436 or 470 nm) turn out when `CN(C)c1ccc2c(c1)Oc1cc(N(C)C)ccc1C21OC(=O)c2cc(C(=O)NCC(=O)N[C@@H](CCCNC(=N)N)C(=O)N[C@@H](CCCCN)C(=O)N[C@@H](CCCCN)C(=O)N[C@@H](CCCNC(=N)N)C(=O)N[C@@H](CCCNC(=N)N)C(=O)N[C@@H](CCC(N)=O)C(=O)N[C@@H](CCCNC(=N)N)C(=O)N[C@@H](CCCNC(=N)N)C(=O)N[C@@H](CCCNC(=N)N)C(=O)NCC(N)=O)ccc21` [TMR-TAT] was run?
A: No endosomal release

Q: And the “photo-induced endosomal release (photoendosomolytic activity) at 560 nm” value ([1]; incubation 1 h 37°C (3 µM; TMR-K9 10 µM), washed, irradiated at 560±20 nm)?
A: release of the fluorescent peptides from endosomes into the cytosol; also recorded: escape of TMR-TAT from endocytic organelles into the cytosol

Q: What about the “photo-induced activities (endosomal release, blebbing, SYTOX Blue staining)” value [2] of the same molecule?
A: could be reproduced; also recorded: membrane blebs are formed on the cell surface, and the nuclei of cells are stained by SYTOX® Blue

Q: And the “photo-induced endosomal release and cell-death after additional incubation” value ([3]; additional 1 hour at 37°C in L-15 before irradiation)?
A: observed

Q: What about the “photo-induced endosomal release and cell-death after additional incubation” value ([3]; additional 4 h at 37°C in L-15 before irradiation) of the same molecule?
A: reduced

Q: What about the “photo-induced endosomal release and cell-death after additional incubation” value ([3]; additional 8 h at 37°C in L-15 before irradiation) of the same molecule?
A: completely abolished
